Data: patent US11999745B2, “Pharmaceutical compounds” (Heptares Therapeutics Limited, priority 2020, dated 2024)

Assays:
Type in all cases: cell-based
[1] = target: T1, human muscarinic M3 receptor (Homo sapiens, UniProt P20309); test: Alphascreen Surefire phospho-ERK1/2 functional assay, M3; details: for Emax: CHO cells stably expressing human M3, read-out: % Emax cf. ACh, M3
T1 construct: expressed in transfected cells
Method: (§1) ERK1/2 phosphorylation is a downstream consequence of both Gq/11 and Gi/o protein coupled receptor activation, making it highly suitable for the assessment of M1, M3 (Gq/11 coupled) and M2, M4 receptors (Gi/o coupled), rather than using different assay formats for different receptor subtypes. CHO cells stably expressing the human muscarinic M1, M2, M3 or M4 receptor were plated (25K/well) onto 96-well tissue culture plates in MEM-alpha+10% dialysed FBS. Once adhered, cells were serum-starved overnight. Agonist stimulation was performed by the addition of 5 μL agonist to the cells for 5 min (37° C.). Media was removed and 50 μL of lysis buffer added.

[2] = target: T2, human muscarinic M4 receptor (Homo sapiens, UniProt P08173); test: Alphascreen Surefire phospho-ERK1/2 functional assay, M4; details: for Emax: CHO cells stably expressing human M4, read-out: % Emax cf. ACh, M4
T2 construct: expressed in transfected cells
T2 sequence (P08173 1-479): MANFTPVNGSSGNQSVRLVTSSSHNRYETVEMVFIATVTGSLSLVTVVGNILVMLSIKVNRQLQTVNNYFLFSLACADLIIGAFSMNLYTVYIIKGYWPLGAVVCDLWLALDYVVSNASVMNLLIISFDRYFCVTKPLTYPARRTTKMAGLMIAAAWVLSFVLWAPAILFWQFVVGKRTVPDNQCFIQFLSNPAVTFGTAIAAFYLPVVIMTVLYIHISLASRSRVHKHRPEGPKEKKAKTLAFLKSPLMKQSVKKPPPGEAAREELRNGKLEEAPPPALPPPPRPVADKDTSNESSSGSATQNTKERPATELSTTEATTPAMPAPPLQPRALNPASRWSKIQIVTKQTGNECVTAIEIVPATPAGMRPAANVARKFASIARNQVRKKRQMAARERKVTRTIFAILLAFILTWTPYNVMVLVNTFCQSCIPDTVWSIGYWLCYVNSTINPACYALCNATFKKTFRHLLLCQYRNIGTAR
Method: as §1

[3] = target: T3, human muscarinic M1 receptor (Homo sapiens, UniProt P11229); test: Alphascreen Surefire phospho-ERK1/2 functional assay, M1; details: CHO cells stably expressing human M1, phospho-ERK1/2
T3 construct: expressed in transfected cells
T3 sequence (P11229 1-460): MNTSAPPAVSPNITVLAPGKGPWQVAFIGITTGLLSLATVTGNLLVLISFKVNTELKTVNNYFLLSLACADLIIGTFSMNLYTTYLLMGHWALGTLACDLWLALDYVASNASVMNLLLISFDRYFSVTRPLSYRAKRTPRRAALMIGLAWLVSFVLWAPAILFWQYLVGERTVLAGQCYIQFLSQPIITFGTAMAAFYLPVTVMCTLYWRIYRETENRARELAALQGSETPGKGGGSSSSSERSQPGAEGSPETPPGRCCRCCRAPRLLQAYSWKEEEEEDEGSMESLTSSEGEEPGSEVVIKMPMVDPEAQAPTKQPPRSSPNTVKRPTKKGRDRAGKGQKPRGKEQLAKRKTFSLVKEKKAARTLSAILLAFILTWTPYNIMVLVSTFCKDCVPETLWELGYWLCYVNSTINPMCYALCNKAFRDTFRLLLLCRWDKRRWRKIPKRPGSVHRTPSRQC
Method: as §1

[4] = target: T4, human muscarinic M2 receptor (Homo sapiens, UniProt P08172); test: Alphascreen Surefire phospho-ERK1/2 functional assay, M2
T4 construct: expressed in transfected cells
T4 sequence (P08172 1-466): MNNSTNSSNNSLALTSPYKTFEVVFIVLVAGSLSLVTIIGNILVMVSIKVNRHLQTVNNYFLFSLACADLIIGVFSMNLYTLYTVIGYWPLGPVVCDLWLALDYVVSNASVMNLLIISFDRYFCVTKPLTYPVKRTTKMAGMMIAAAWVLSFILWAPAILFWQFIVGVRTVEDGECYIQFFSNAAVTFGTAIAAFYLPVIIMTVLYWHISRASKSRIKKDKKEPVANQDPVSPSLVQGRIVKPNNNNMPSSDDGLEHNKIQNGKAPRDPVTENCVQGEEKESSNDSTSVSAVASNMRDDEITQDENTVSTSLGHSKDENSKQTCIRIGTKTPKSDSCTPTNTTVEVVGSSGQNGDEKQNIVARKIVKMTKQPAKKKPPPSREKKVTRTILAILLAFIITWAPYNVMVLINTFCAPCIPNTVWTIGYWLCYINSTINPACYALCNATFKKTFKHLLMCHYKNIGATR
Method: as §1

T1 sequence (P20309 whole entry): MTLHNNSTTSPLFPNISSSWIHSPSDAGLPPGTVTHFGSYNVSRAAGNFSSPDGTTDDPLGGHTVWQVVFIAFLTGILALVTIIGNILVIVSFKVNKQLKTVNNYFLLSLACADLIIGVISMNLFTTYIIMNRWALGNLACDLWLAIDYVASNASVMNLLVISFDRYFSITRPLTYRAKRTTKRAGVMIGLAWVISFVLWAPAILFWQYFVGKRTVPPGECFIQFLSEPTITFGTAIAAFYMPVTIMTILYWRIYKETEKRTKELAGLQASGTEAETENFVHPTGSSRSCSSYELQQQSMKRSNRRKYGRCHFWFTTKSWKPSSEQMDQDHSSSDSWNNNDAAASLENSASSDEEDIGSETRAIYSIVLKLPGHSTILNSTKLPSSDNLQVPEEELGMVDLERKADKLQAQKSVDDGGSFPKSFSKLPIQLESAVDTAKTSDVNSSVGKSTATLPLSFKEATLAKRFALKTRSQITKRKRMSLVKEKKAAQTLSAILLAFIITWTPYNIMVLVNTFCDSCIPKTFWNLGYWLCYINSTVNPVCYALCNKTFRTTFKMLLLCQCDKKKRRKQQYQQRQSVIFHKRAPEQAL

Structure (SMILES) | Emax [1] | Emax [2] | pEC50 M1 [3] | Emax ([3]; read-out: % Emax cf. ACh, M1) | Emax ([4]; CHO cells stably expressing human M2, read-out: % Emax cf. ACh, M2) | EC50 ([4]; CHO cells stably expressing human M2, read-out: pEC50 M2 (converted)) | EC50 ([1]; CHO cells stably expressing human M3, read-out: pEC50 M3 (converted)) | EC50 ([2]; CHO cells stably expressing human M4, read-out: pEC50 M4 (converted))
CC(=O)OCC[N+](C)(C)C [Acetylcholine, reference compound] | 102% | 108% | – | – | – | – | – | –
CC(C)(C)NC(=O)C1CCN([C@H]2C[C@H]3CC[C@@H](C2)N3c2nc(C(F)(F)F)no2)CC1.Cl [Example 1-1, N-(tert-butyl)-1-((1R,3r,5S)-8-(3-(trifluoromethyl)-1,2,4-oxadiazol-5-yl)-8-azabicyclo[3.2.1]octan-3-yl)piperidine-4-carboxamide hydrochloride] | 3% | 32% | 7.17 | 92% | 7% | > 20 µM | > 20 µM | 0.12 µM
